Peptide text beside a SMILES is read from it.

Data set [1] can be described thus: water-solubility of the peptide. It is filed as physicochemical. An excerpt:
This peptide is hydrophilic and its water-solubility is very good.

The test system of data set [2] is intravascular thrombus. The experiment in a line: experimental thrombosis: intravascular thrombus induced by a specific lesion of the arterial wall, guineapig. The conditions noted are these: direct intravenous injection. It is filed as in vivo. On the procedure:
Experimental work on thrombosis carried out on two different animal species (rat and guineapig) have shown that the peptides according to the invention, in particular the peptides of the general formula […] (II), viz. particularly peptide […] (peptide 1) and peptide […] […] The type of thrombus which is thus induced takes into account the participation of the blood platelets against which the peptide exerts its activity but also the reactivity of the injured vascular wall.

The subject of data set [3] is intravascular thrombus. The experiment in a line: experimental thrombosis: intravascular thrombus induced by a specific lesion of the arterial wall, rat. The conditions noted are these: direct intravenous injection. It is filed as in vivo. On the procedure: Experimental work on thrombosis carried out on two different animal species (rat and guineapig) have shown that the peptides according to the invention, in particular the peptides of the general formula […] (II), viz. particularly peptide […] (peptide 1) and peptide […] The type of thrombus which is thus induced takes into account the participation of the blood platelets against which the peptide exerts its activity but also the reactivity of the injured vascular wall. […] In the same experimental thrombosis system, when a peptide according to the invention is used, particularly a peptide of the formula […]

As for `N=C(N)NCCC[C@H](NC(=O)[C@@H](N)CCCCN)C(=O)N[C@@H](CC(=O)O)C(=O)N[C@@H](CO)C(=O)O` [peptide 1, Lys-Arg-Asp-Ser] (H-KRDS-OH), the water-solubility entry in data set [1] was “very good”.
Turning to `N=C(N)NCCC[C@H](NC(=O)[C@H](CC(=O)O)NC(=O)[C@H](CCCNC(=N)N)NC(=O)[C@@H](N)CCCCN)C(=O)O` [peptide 6, Lys-Arg-Asp-Arg] (H-KRDR-OH), the anti-thrombotic activity entry in the data set with intravascular thrombus [2] and with intravascular thrombus [3] was “exert an anti-thrombotic activity” each time.
